System: SW1271 complex spheroids with HUVEC/MSC, growth, % test/control
Assay: Anticancer human tumor SW1271 cell line growth inhibition [AhR];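 also: spheroids exposed to agents for 7 days before readout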
Details: for IC50: curve of first compound; for viability, T/C: stronger effect = lower value
Summary of the method: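 Spheroids combined tumor cells with HUVEC endothelial cells and human MSCs as stroma. AhR antagonists were paired with standard or investigational drugs, each dosed in half-log steps down from near clinical Cmax, or from 10 microM where Cmax was unknown.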

[1] = second compound 0.1 µM, first compound 0.000949 µM
[2] = second compound 0.1 µM, first compound 0.003 µM
[3] = second compound 0.1 µM, first compound 0.00949 µM
[4] = second compound 0.1 µM, first compound 0.03 µM
[5] = second compound 0.1 µM, first compound 0.0949 µM
[6] = second compound 0.1 µM, first compound 0.3 µM
[7] = second compound 0.316 µM, first compound 0.000949 µM
[8] = second compound 0.316 µM, first compound 0.003 µM
[9] = second compound 0.316 µM, first compound 0.00949 µM
[10] = second compound 0.316 µM, first compound 0.03 µM
[11] = second compound 0.316 µM, first compound 0.0949 µM
[12] = second compound 0.316 µM, first compound 0.3 µM
[13] = second compound 1 µM, first compound 0.000949 µM
[14] = second compound 1 µM, first compound 0.003 µM
[15] = second compound 1 µM, first compound 0.00949 µM
[16] = second compound 1 µM, first compound 0.03 µM
[17] = second compound 1 µM, first compound 0.0949 µM
[18] = second compound 1 µM, first compound 0.3 µM
[19] = second compound 3.16 µM, first compound 0.000949 µM
[20] = second compound 3.16 µM, first compound 0.003 µM
[21] = second compound 3.16 µM, first compound 0.00949 µM
[22] = second compound 3.16 µM, first compound 0.03 µM
[23] = second compound 3.16 µM, first compound 0.0949 µM
[24] = second compound 3.16 µM, first compound 0.3 µM
[25] = second compound 10 µM, first compound 0.000949 µM
[26] = second compound 10 µM, first compound 0.003 µM
[27] = second compound 10 µM, first compound 0.00949 µM
[28] = second compound 10 µM, first compound 0.03 µM
[29] = second compound 10 µM, first compound 0.0949 µM
[30] = second compound 10 µM, first compound 0.3 µM

CC(C)CC(NC(=O)C(Cc1ccccc1)NC(=O)c1cnccn1)B(O)O (stereo not given) + Cc1cncc(-c2nc(NCCc3c[nH]c4ccccc34)c3ncn(C(C)C)c3n2)c1
IC50 (second compound 0.1 µM): 6.11 nM | IC50 (second compound 0.316 µM): 5.7 nM | IC50 (second compound 1 µM): 6.18 nM | IC50 (second compound 3.16 µM): 5.61 nM | IC50 (second compound 10 µM): 3.96 nM | viability, T/C [1]: 122% | viability, T/C [2]: 112% | viability, T/C [3]: 11.9% | viability, T/C [4]: 0.91% | viability, T/C [5]: 0.33% | viability, T/C [6]: 0.46% | viability, T/C [7]: 84.3% | viability, T/C [8]: 113% | viability, T/C [9]: 11.3% | viability, T/C [10]: 0.73% | viability, T/C [11]: 0.67% | viability, T/C [12]: 0.41% | viability, T/C [13]: 113% | viability, T/C [14]: 112% | viability, T/C [15]: 13.4% | viability, T/C [16]: 1.13% | viability, T/C [17]: 0.75% | viability, T/C [18]: 0.48% | viability, T/C [19]: 107% | viability, T/C [20]: 102% | viability, T/C [21]: 5.96% | viability, T/C [22]: 0.63% | viability, T/C [23]: 0.88% | viability, T/C [24]: 0.55% | viability, T/C [25]: 62.2% | viability, T/C [26]: 69.2% | viability, T/C [27]: 0.81% | viability, T/C [28]: 0.31% | viability, T/C [29]: 0.34% | viability, T/C [30]: 0.3%

CCc1c2c(nc3ccc(O)cc13)-c1cc3c(c(=O)n1C2)COC(=O)[C@]3(O)CC + Cc1cncc(-c2nc(NCCc3c[nH]c4ccccc34)c3ncn(C(C)C)c3n2)c1
IC50 (second compound 0.1 µM): > 300 nM | IC50 (second compound 0.316 µM): > 300 nM | IC50 (second compound 1 µM): 255 nM | IC50 (second compound 3.16 µM): 162 nM | IC50 (second compound 10 µM): 1.82 nM | viability, T/C [1]: 86.5% | viability, T/C [2]: 92.8% | viability, T/C [3]: 76.6% | viability, T/C [4]: 57.4% | viability, T/C [5]: 59.5% | viability, T/C [6]: 57.8% | viability, T/C [7]: 69.5% | viability, T/C [8]: 79.8% | viability, T/C [9]: 83% | viability, T/C [10]: 58.1% | viability, T/C [11]: 52.2% | viability, T/C [12]: 48.9% | viability, T/C [13]: 116% | viability, T/C [14]: 104% | viability, T/C [15]: 71% | viability, T/C [16]: 74.2% | viability, T/C [17]: 64.1% | viability, T/C [18]: 50.3% | viability, T/C [19]: 92% | viability, T/C [20]: 90.2% | viability, T/C [21]: 75.2% | viability, T/C [22]: 63.6% | viability, T/C [23]: 60.8% | viability, T/C [24]: 41.5% | viability, T/C [25]: 55.5% | viability, T/C [26]: 45% | viability, T/C [27]: 37.2% | viability, T/C [28]: 27.9% | viability, T/C [29]: 24% | viability, T/C [30]: 25.9%

COc1cc(Nc2ncc3c(n2)-c2ccc(Cl)cc2C(c2c(F)cccc2OC)=NC3)ccc1C(=O)O + Cc1cncc(-c2nc(NCCc3c[nH]c4ccccc34)c3ncn(C(C)C)c3n2)c1
IC50 (second compound 0.1 µM): > 10000 nM | IC50 (second compound 0.316 µM): > 10000 nM | IC50 (second compound 1 µM): > 10000 nM | IC50 (second compound 3.16 µM): > 10000 nM | IC50 (second compound 10 µM): < 31.6 nM | viability, T/C (second compound 0.1 µM, first compound 0.0316 µM): 92.7% | viability, T/C (second compound 0.1 µM, first compound 0.1 µM): 91.6% | viability, T/C (second compound 0.1 µM, first compound 0.316 µM): 98.6% | viability, T/C (second compound 0.1 µM, first compound 1 µM): 93.9% | viability, T/C (second compound 0.1 µM, first compound 3.16 µM): 78.3% | viability, T/C (second compound 0.1 µM, first compound 10 µM): 67.7% | viability, T/C (second compound 0.316 µM, first compound 0.0316 µM): 91% | viability, T/C (second compound 0.316 µM, first compound 0.1 µM): 87.8% | viability, T/C (second compound 0.316 µM, first compound 0.316 µM): 92% | viability, T/C (second compound 0.316 µM, first compound 1 µM): 91% | viability, T/C (second compound 0.316 µM, first compound 3.16 µM): 98.4% | viability, T/C (second compound 0.316 µM, first compound 10 µM): 57.5% | viability, T/C (second compound 1 µM, first compound 0.0316 µM): 81.5% | viability, T/C (second compound 1 µM, first compound 0.1 µM): 87.2% | viability, T/C (second compound 1 µM, first compound 0.316 µM): 88.2% | viability, T/C (second compound 1 µM, first compound 1 µM): 88.6% | viability, T/C (second compound 1 µM, first compound 3.16 µM): 81.3% | viability, T/C (second compound 1 µM, first compound 10 µM): 56.2% | viability, T/C (second compound 3.16 µM, first compound 0.0316 µM): 95.1% | viability, T/C (second compound 3.16 µM, first compound 0.1 µM): 87.5% | viability, T/C (second compound 3.16 µM, first compound 0.316 µM): 91.9% | viability, T/C (second compound 3.16 µM, first compound 1 µM): 102% | viability, T/C (second compound 3.16 µM, first compound 3.16 µM): 78.9% | viability, T/C (second compound 3.16 µM, first compound 10 µM): 67.9% | viability, T/C (second compound 10 µM, first compound 0.0316 µM): 36.1% | viability, T/C (second compound 10 µM, first compound 0.1 µM): 50.7% | viability, T/C (second compound 10 µM, first compound 0.316 µM): 49.5% | viability, T/C (second compound 10 µM, first compound 1 µM): 50.1% | viability, T/C (second compound 10 µM, first compound 3.16 µM): 42.5% | viability, T/C (second compound 10 µM, first compound 10 µM): 40.4%
